Values after ≈ are worked out from the molar mass of the structure shown. Read-outs that look alike come from different tables or passages of the source. *: point of attachment. Biotin = O=C1N[C@H]2[C@H](CS[C@H]2CCCCC(=O)*)N1
Key:
[1] = system: fixed cells (Ebtr, SK6, sf-21, Caco-2 and HT-29); format: cell-based
[2] = system: live cells in suspension or subconfluent monolayers; format: cell-based
human breast skin = human breast skin in vitro, two hours
Protocol: (§1) Transdermal transport. The potential of the an E^rns peptide to penetrate the skin was tested by applying 150 μl 0.3-4 mM of biotinylated peptide in a chamber containing an isolated piece of “fresh” human breast skin or in a chamber which was glued on the skin of a live pig, or applying 50 μl of peptide solution on the skin with a cotton wool tip, or applying 50 μl of a peptide solution mixed with 50 μl of contact gel on the skin for 30 minutes to 120 minutes. After the incubation time, the pig was killed, the skin was cleaned and biopsied, and a biopsy was frozen in liquid nitrogen. Cryosections of the skin samples were fixed on microscopic slides with acetone and incubated with streptavidin-FITC ( 1/100) for 30 minutes.

skin of a live pig = settings: skin of a pig in vivo
Protocol: as §1

guinea pig erythrocytes = test: Hemolytic assay, guinea pig erythrocytes; format: cell-based; settings: 1% v/v, one hour at 37° C.
Protocol: Hemolytic assay. Hemolytic activity of various peptide concentrations was determined by incubation with human, guinea pig or sheep erythrocyte suspensions (final erythrocyte concentration, 1% v/v) for one hour at 37° C. After cooling and centrifugation, the optical density of the supernatants were measured at 540 nm. Peptide concentrations causing 50% hemolysis (EC50) were derived from the dose-response curves.

[3] = system: Escherichia coli ATCC 25922; test: Antimicrobial assay (MIC), E. coli; format: cell-based; settings: overnight at 37° C.
Summary of the method: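 E. coli ATCC 25922 at about 5×10^5 cfu/well in Mueller Hinton II broth with two-fold peptide dilutions (final 2000 down to 3.98 μg/ml; repeat series 5000–1.22 μg/ml), overnight at 37° C. Growth scored visually and by A630; triplicate independent runs.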

Compound: $ENARQGAARVTSWLGRQLRIAGKRLEGRSKTWFGAYA# [191-227]
- Binding to fixed cells [1]: able to bind to all tested cell types
- Time to optimal fluorescence [2]: 30 min
- Translocation activity (in words) [2]: penetrated inside all cell types
- Peptide concentration that inhibits cell growth (EBTr cells): 50 µM
- Peptide concentration that inhibits cell growth (HeLa cells): 50 µM

Compound: Biotin-GRQLRIAGRRLRGRSR-NH2 [MDK-20]
- Skin penetration of biotinylated peptide (human breast skin): could be visualized with streptavidin-FITC in the epidermis and the dermis
- Skin penetration of biotinylated peptide (skin of a live pig): same results
- Time after application at which penetration into the epidermis was observed (skin of a live pig): 30 min
- Concentration (translocation activity), optimization of E^rns peptide [2]: 0.1 µM

Compound: CC[C@H](C)[C@H](NC(=O)[C@H](CCCNC(=N)N)NC(=O)[C@H](CC(C)C)NC(=O)[C@H](CCC(N)=O)NC(=O)[C@H](CCCNC(=N)N)NC(=O)CNC(=O)[C@H](CC(C)C)NC(=O)[C@H](Cc1c[nH]c2ccccc12)NC(=O)[C@H](CO)NC(=O)[C@@H](NC(=O)[C@@H](NC(=O)[C@H](CCCNC(=N)N)NC(=O)[C@H](C)NC(=O)[C@H](C)NC(=O)CNC(=O)[C@H](CCC(N)=O)NC(=O)[C@H](CCCNC(=N)N)NC(=O)CCCC[C@@H]1SC[C@@H]2NC(=O)N[C@@H]21)C(C)C)[C@@H](C)O)C(=O)N[C@@H](C)C(=O)NCC(=O)N[C@@H](CCCCN)C(=O)N[C@@H](CCCNC(=N)N)C(=O)N[C@@H](CC(C)C)C(=O)N[C@@H](CCC(=O)O)C(=O)NCC(=O)N[C@@H](CCCNC(=N)N)C(=O)N[C@@H](CO)C(=O)N[C@@H](CCCCN)C(N)=O [194-220]
- Hemolysis (peptide concentration causing 50% hemolysis) (guinea pig erythrocytes): 0.26 mg/mL
- Concentration at which biotinylated peptide was still (faintly) detectable [2]: 125 nM
- Concentration (translocation activity), optimization of E^rns peptide ([2]; Table 9, lower concentration = higher translocation activity): 1.0 µM
- Peptide concentration that inhibits cell growth (EBTr cells; EBTr, 75 minutes incubation, growth checked after 3 to 6 days): 60 µM
- Peptide concentration that inhibits cell growth (HeLa cells; HeLa, 75 minutes incubation, growth checked after 3 to 6 days): 40 µM
- MIC (minimal inhibitory concentration needed to inhibit bacterial growth) [3]: 50 mg/L (≈ 15.3 µM)
